Results published in patent US20230126447A1, “OCULAR DRUG DEPOT FOR COMPLEMENT-MEDIATED DISORDERS” (priority 2020, published 2023).
“And” between values parts separate entries of the source, which are not always exact repeats. Equal values may be shown once. Read-outs that look alike come from different tables or passages of the source.

Legend:
[1] = Ocular tissue and plasma pharmacokinetics, 50 mg/kg BID oral, Dutch Belted rabbits (Example 4/5); assay type: in vivo; settings: for concentration at 96 h / concentration at 168 h / concentration at 0 h / concentration at 1 h / concentration at 6 h / concentration at 24 h / concentration at 240 h: 50 mg/kg
Protocol: Study design, including group designation and dose levels, are outlined in Table 15. […] Two Dutch Belted rabbits received vehicle only oral gavage doses for tolerability assessment. […] The dose volume was 5 mL/kg/dose for all groups. Safety was assessed with toxicological and ophthalmic examinations, including slit lamp biomicroscopy, indirect ophthalmoscopy, rebound tonometry, and ultrasonic corneal pachymetry.
For the pharmacokinetic determination, a single blood sample was taken from each rabbit from Groups 1 and 4 at one hour post-dose on Day 15, Group 2 at one hour post-dose on Day 8, and Group 3 at pre-dose, 1, 6, 24, 96, 168, and 240 hours post-dose on Day 15, with the eyes collected at the same time as blood sampling. Plasma, vitreous humor (VH), retina, choroid-retina pigmented epithelium (Choroid-RPE), optic nerve (ON), and iris-ciliary body (I-CB) were analyzed by LC-MS/MS to quantify test article concentrations. The lower limit of quantitation (LLOQ) in plasma and vitreous humor was 1.0 ng/mL. The LLOQ was 6.0 ng/g in retina, choroid-RPE, and I-CB and the optic nerve LLOQ was 15 ng/g, assuming tissue density of 1 g/mL where relevant. […]

[2] = In vitro binding to synthetic melanin; settings: synthetic melanin 50 μg/mL, PBS, 37° C., 1 hour
Protocol: […] The melanin solution was stored in the dark at 37° C. until use.
Immediately after the assay, samples were added to an equal volume of warm PBS, aliquots (3 μL each) were removed, added to 100 μL of acetonitrile containing carbutamide as internal standard, and then diluted with water (197 μL). These time-zero samples, prepared in PBS only, were also used as calibration standards.
The assay plates containing samples with and without melanin were incubated in the dark with shaking at 37° C. for 1 hour. Following incubation, the samples were centrifuged for 15 minutes at approximately 4000 rpm at 37° C. to sediment the melanin. Sample supernatant (3 μL) was added to 100 μL of acetonitrile containing the internal standard and then diluted with water (197 μL).
The column was set to a temperature of 55° C. […]
Analytes and internal standards were detected using an Applied Biosystems Sciex API-5500 triple quadrupole mass spectrometer with Agilent 1260 Infinity Binary Pump and Apricot Designs ADDA High-Speed Dual Arm Autosampling System. The instrument was equipped with an electrospray ionization source (600° C.) operated in the positive ion mode. Analytes and internal standards for all samples were monitored in the multiple-reaction-monitoring scan mode.

[3] = male, Dutch Belted, po, Optic Nerve, DB rabbit, 50 mg/kg BID, Day 15
[4] = male, Dutch Belted, po, Plasma, DB rabbit, 50 mg/kg BID, Day 15
[5] = male, Dutch Belted, po, Retina, DB rabbit, 50 mg/kg BID, Day 15
[6] = male, Dutch Belted, po, Vitreous Humor, DB rabbit, 50 mg/kg BID, Day 15

SMILES: CC(=O)c1nn(CC(=O)N2C[C@H](F)C[C@H]2C(=O)Nc2cccc(Br)n2)c2ccc(-c3cnc(C)nc3)cc12 [Compound 1, (2S,4R)-1-(2-(3-Acetyl-5-(2-methylpyrimidin-5-yl)-1H-indazol-1-yl)acetyl)-N-(6-bromopyridin-2-yl)-4-fluoropyrrolidine-2-carboxamide]
- MRT last [1, 3]: 4.79 h
- Tmax [1, 3]: 1 h
- half-life [1, 3]: 7.82 h
- AUC(0-inf) [1, 4]: 10100 ng·h/mL
- Cmax [1, 4]: 2900 ng/mL
- MRT last [1, 4]: 4.73 h
- Tmax [1, 4]: 1 h
- half-life [1, 4]: 5.98 h
- AUC(0-t) ([1]; male, Dutch Belted, po, Plasma, DB rabbit, 50 mg/kg BID, Day 15, read-out: AUC0-t): 9790 ng·h/mL
- Cmax [1, 5]: 2120 ng/g
- MRT last [1, 5]: 53.2 h
- Tmax [1, 5]: 1 h
- half-life [1, 5]: 96.1 h
- Cmax [1, 6]: 49.2 ng/g and 49.2 ng/mL
- MRT last [1, 6]: 7.27 h
- Tmax [1, 6]: 1 h
- half-life [1, 6]: 5.44 h
- AUC(0-t) ([1]; male, Dutch Belted, po, Vitreous Humor, DB rabbit, 50 mg/kg BID, Day 15, read-out: AUClast): 419 ng·h/mL
- concentration at 96 h ([1]; male, Dutch Belted, rabbit, choroid-RPE, oral, DB rabbits, Day 15, 50 mg/kg BID, 96 hr, read-out: Mean Choroid-RPE Concentration): 873 ng/g
- concentration at 168 h ([1]; male, Dutch Belted, rabbit, choroid-RPE, oral, DB rabbits, Day 15, 50 mg/kg BID, 168 hr, read-out: Mean Choroid-RPE Concentration): 645 ng/g
- concentration at 0 h ([1]; male, Dutch Belted, rabbit, choroid-RPE, po, DB rabbit, 50 mg/kg BID oral, Day 15, 0 h, read-out: Mean Choroid-RPE concentration): 3920 ng/g
- concentration at 1 h ([1]; male, Dutch Belted, rabbit, choroid-RPE, po, DB rabbit, 50 mg/kg BID oral, Day 15, 1 h, read-out: Mean Choroid-RPE concentration): 8020 ng/g
- concentration at 6 h ([1]; male, Dutch Belted, rabbit, choroid-RPE, po, DB rabbit, 50 mg/kg BID oral, Day 15, 6 h, read-out: Mean Choroid-RPE concentration): 4370 ng/g
- concentration at 24 h ([1]; male, Dutch Belted, rabbit, choroid-RPE, po, DB rabbit, 50 mg/kg BID oral, Day 15, 24 h, read-out: Mean Choroid-RPE concentration): 2100 ng/g
- concentration at 240 h ([1]; male, Dutch Belted, rabbit, choroid-RPE, po, DB rabbit, 50 mg/kg BID oral, Day 15, 240 h, read-out: Mean Choroid-RPE concentration): 194 ng/g
- concentration at 0 h ([1]; male, Dutch Belted, rabbit, iris-ciliary body, po, DB rabbit, 50 mg/kg BID oral, Day 15, 0 h, read-out: Mean Iris-Ciliary Body concentration): 5080 ng/g
- concentration at 1 h ([1]; male, Dutch Belted, rabbit, iris-ciliary body, po, DB rabbit, 50 mg/kg BID oral, Day 15, 1 h, read-out: Mean Iris-Ciliary Body concentration): 11500 ng/g
- concentration at 6 h ([1]; male, Dutch Belted, rabbit, iris-ciliary body, po, DB rabbit, 50 mg/kg BID oral, Day 15, 6 h, read-out: Mean Iris-Ciliary Body concentration): 8820 ng/g
- concentration at 24 h ([1]; male, Dutch Belted, rabbit, iris-ciliary body, po, DB rabbit, 50 mg/kg BID oral, Day 15, 24 h, read-out: Mean Iris-Ciliary Body concentration): 5560 ng/g
- concentration at 96 h ([1]; male, Dutch Belted, rabbit, iris-ciliary body, po, DB rabbit, 50 mg/kg BID oral, Day 15, 96 h, read-out: Mean Iris-Ciliary Body concentration): 2840 ng/g
- concentration at 168 h ([1]; male, Dutch Belted, rabbit, iris-ciliary body, po, DB rabbit, 50 mg/kg BID oral, Day 15, 168 h, read-out: Mean Iris-Ciliary Body concentration): 2290 ng/g
- concentration at 240 h ([1]; male, Dutch Belted, rabbit, iris-ciliary body, po, DB rabbit, 50 mg/kg BID oral, Day 15, 240 h, read-out: Mean Iris-Ciliary Body concentration): 1620 ng/g
- concentration at 0 h ([1]; male, Dutch Belted, rabbit, optic nerve, po, DB rabbit, 50 mg/kg BID oral, Day 15, 0 h, read-out: Optic Nerve concentration): 45.3 ng/g
- concentration at 1 h ([1]; male, Dutch Belted, rabbit, optic nerve, po, DB rabbit, 50 mg/kg BID oral, Day 15, 1 h, read-out: Optic Nerve concentration): 1550 ng/g
- concentration at 6 h ([1]; male, Dutch Belted, rabbit, optic nerve, po, DB rabbit, 50 mg/kg BID oral, Day 15, 6 h, read-out: Optic Nerve concentration): 133 ng/g
- concentration at 24 h ([1]; male, Dutch Belted, rabbit, optic nerve, po, DB rabbit, 50 mg/kg BID oral, Day 15, 24 h, read-out: Optic Nerve concentration): 27 ng/g
- concentration at 0 h ([1]; male, Dutch Belted, rabbit, plasma, po, DB rabbit, 50 mg/kg BID oral, Day 15, 0 h, read-out: Mean plasma concentration): 104 ng/mL
- concentration at 1 h ([1]; male, Dutch Belted, rabbit, plasma, po, DB rabbit, 50 mg/kg BID oral, Day 15, 1 h, read-out: Mean plasma concentration): 2900 ng/mL
- concentration at 6 h ([1]; male, Dutch Belted, rabbit, plasma, po, DB rabbit, 50 mg/kg BID oral, Day 15, 6 h, read-out: Mean plasma concentration): 320 ng/mL
- concentration at 24 h ([1]; male, Dutch Belted, rabbit, plasma, po, DB rabbit, 50 mg/kg BID oral, Day 15, 24 h, read-out: Mean plasma concentration): 39.9 ng/mL
- concentration at 0 h ([1]; male, Dutch Belted, rabbit, retina, oral, DB rabbits, Day 15, 50 mg/kg BID, 0 hr, read-out: Mean Retina Concentration): 159 ng/g
- concentration at 1 h ([1]; male, Dutch Belted, rabbit, retina, oral, DB rabbits, Day 15, 50 mg/kg BID, 1 hr, read-out: Mean Retina Concentration): 2120 ng/g
- concentration at 6 h ([1]; male, Dutch Belted, rabbit, retina, oral, DB rabbits, Day 15, 50 mg/kg BID, 6 hr, read-out: Mean Retina Concentration): 725 ng/g
- concentration at 24 h ([1]; male, Dutch Belted, rabbit, retina, oral, DB rabbits, Day 15, 50 mg/kg BID, 24 hr, read-out: Mean Retina Concentration): 265 ng/g
- concentration at 96 h ([1]; male, Dutch Belted, rabbit, retina, oral, DB rabbits, Day 15, 50 mg/kg BID, 96 hr, read-out: Mean Retina Concentration): 32.3 ng/g
- concentration at 168 h ([1]; male, Dutch Belted, rabbit, retina, oral, DB rabbits, Day 15, 50 mg/kg BID, 168 hr, read-out: Mean Retina Concentration): 54.9 ng/g
- concentration at 240 h ([1]; male, Dutch Belted, rabbit, retina, oral, DB rabbits, Day 15, 50 mg/kg BID, 240 hr, read-out: Mean Retina Concentration): 39.4 ng/g
- concentration at 0 h ([1]; male, Dutch Belted, rabbit, retina, po, DB rabbit, 50 mg/kg BID oral, Day 15, 0 h, read-out: Mean retina concentration): 159 ng/g
- concentration at 1 h ([1]; male, Dutch Belted, rabbit, retina, po, DB rabbit, 50 mg/kg BID oral, Day 15, 1 h, read-out: Mean retina concentration): 2120 ng/g
- concentration at 6 h ([1]; male, Dutch Belted, rabbit, retina, po, DB rabbit, 50 mg/kg BID oral, Day 15, 6 h, read-out: Mean retina concentration): 725 ng/g
- concentration at 24 h ([1]; male, Dutch Belted, rabbit, retina, po, DB rabbit, 50 mg/kg BID oral, Day 15, 24 h, read-out: Mean retina concentration): 265 ng/g
- concentration at 96 h ([1]; male, Dutch Belted, rabbit, retina, po, DB rabbit, 50 mg/kg BID oral, Day 15, 96 h, read-out: Mean retina concentration): 32.3 ng/g
- concentration at 168 h ([1]; male, Dutch Belted, rabbit, retina, po, DB rabbit, 50 mg/kg BID oral, Day 15, 168 h, read-out: Mean retina concentration): 54.9 ng/g
- concentration at 240 h ([1]; male, Dutch Belted, rabbit, retina, po, DB rabbit, 50 mg/kg BID oral, Day 15, 240 h, read-out: Mean retina concentration): 39.3 ng/g
- concentration at 0 h ([1]; male, Dutch Belted, rabbit, vitreous humor, po, DB rabbit, 50 mg/kg BID oral, Day 15, 0 h, read-out: Vitreous concentration): 2.91 ng/g
- concentration at 1 h ([1]; male, Dutch Belted, rabbit, vitreous humor, po, DB rabbit, 50 mg/kg BID oral, Day 15, 1 h, read-out: Vitreous concentration): 49.2 ng/g
- concentration at 6 h ([1]; male, Dutch Belted, rabbit, vitreous humor, po, DB rabbit, 50 mg/kg BID oral, Day 15, 6 h, read-out: Vitreous concentration): 28.7 ng/g
- concentration at 24 h ([1]; male, Dutch Belted, rabbit, vitreous humor, po, DB rabbit, 50 mg/kg BID oral, Day 15, 24 h, read-out: Vitreous concentration): 2.9 ng/g
- Tlast ([1]; plasma, DB rabbit, 50 mg/kg BID, Day 15): 24 h
- C-RPE drug concentration at least 10 days following the last oral administration ([1]; rabbit, 50 mg/kg BID): 196 ng/mL
- Bmax (binding capacity) [2]: 127 nmol/mg melanin
